Assay results taken from PubChem BioAssay (NCI).
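Grown in 96-well plates, cells were treated for 48 hours with each compound at five concentrations. Insufficient inhibition: endpoint recorded as highest concentration tested. The concentration for 50% growth inhibition is given as GI50. TGI: concentration producing complete growth inhibition.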

Experiments:
Assay in all cases: NCI anticancer screen, dose series, 48 h
SF-539 CNS = test system: SF-539 CNS
A498 renal = test system: A498 renal
OVCAR-5 ovarian = test system: OVCAR-5 ovarian
SK-MEL-2 melanoma = test system: SK-MEL-2 melanoma
IGROV1 ovarian = test system: IGROV1 ovarian
UACC-257 melanoma = test system: UACC-257 melanoma
ACHN renal = test system: ACHN renal
MALME-3M melanoma = test system: MALME-3M melanoma
SK-MEL-28 melanoma = test system: SK-MEL-28 melanoma
SF-268 CNS = test system: SF-268 CNS
NCI-H226 lung = test system: NCI-H226 lung
RPMI-8226 leukemia = test system: RPMI-8226 leukemia
K-562 leukemia = test system: K-562 leukemia
MDA-MB-435 = test system: MDA-MB-435
PC-3 prostate = test system: PC-3 prostate
RXF 393 renal = test system: RXF 393 renal
MCF7 breast = test system: MCF7 breast
HL-60(TB) leukemia = test system: HL-60(TB) leukemia
MOLT-4 leukemia = test system: MOLT-4 leukemia
786-0 renal = test system: 786-0 renal
OVCAR-3 ovarian = test system: OVCAR-3 ovarian
DU-145 prostate = test system: DU-145 prostate
COLO 205 colon = test system: COLO 205 colon
LOX IMVI melanoma = test system: LOX IMVI melanoma
HCT-15 colon = test system: HCT-15 colon
NCI-H460 lung = test system: NCI-H460 lung
T-47D breast = test system: T-47D breast
UACC-62 melanoma = test system: UACC-62 melanoma
U251 CNS = test system: U251 CNS
UO-31 renal = test system: UO-31 renal
NCI/ADR-RES ovarian = test system: NCI/ADR-RES ovarian
NCI-H522 lung = test system: NCI-H522 lung
SNB-19 CNS = test system: SNB-19 CNS
SR leukemia = test system: SR leukemia
SW-620 colon = test system: SW-620 colon
HOP-62 NSCLC = test system: HOP-62 NSCLC
HCT-116 colon = test system: HCT-116 colon
TK-10 renal = test system: TK-10 renal
SK-OV-3 ovarian = test system: SK-OV-3 ovarian
KM12 colon = test system: KM12 colon
SF-295 CNS = test system: SF-295 CNS
HCC-2998 colon = test system: HCC-2998 colon
A549 NSCLC = test system: A549 NSCLC
CCRF-CEM leukemia = test system: CCRF-CEM leukemia
SK-MEL-5 melanoma = test system: SK-MEL-5 melanoma
M14 melanoma = test system: M14 melanoma
HS 578T breast = test system: HS 578T breast
CAKI-1 renal = test system: CAKI-1 renal
SN12C renal = test system: SN12C renal
SNB-75 CNS = test system: SNB-75 CNS
HOP-92 NSCLC = test system: HOP-92 NSCLC
MDA-MB-231 breast = test system: MDA-MB-231 breast
BT-549 breast = test system: BT-549 breast

CC(=O)[O][Hg][c]1c(N)c(C)cc(C)c1F
GI50 (SF-539 CNS): 1570 nM | TGI (SF-539 CNS): 3110 nM | GI50 (A498 renal): 5350 nM | TGI (A498 renal): 15800 nM | GI50 (OVCAR-5 ovarian): 1950 nM | TGI (OVCAR-5 ovarian): 3670 nM | GI50 (SK-MEL-2 melanoma): 1560 nM | TGI (SK-MEL-2 melanoma): 3230 nM | GI50 (IGROV1 ovarian): 939 nM | TGI (IGROV1 ovarian): 2790 nM | GI50 (UACC-257 melanoma): 1510 nM | TGI (UACC-257 melanoma): 2960 nM | GI50 (ACHN renal): 1610 nM | TGI (ACHN renal): 3080 nM | GI50 (MALME-3M melanoma): 1630 nM | TGI (MALME-3M melanoma): 3250 nM | GI50 (SK-MEL-28 melanoma): 1370 nM | TGI (SK-MEL-28 melanoma): 2830 nM | GI50 (SF-268 CNS): 1220 nM | TGI (SF-268 CNS): 2700 nM | GI50 (NCI-H226 lung): 16200 nM | TGI (NCI-H226 lung): 44500 nM | GI50 (RPMI-8226 leukemia): 1810 nM | TGI (RPMI-8226 leukemia): 6000 nM | GI50 (K-562 leukemia): 749 nM | TGI (K-562 leukemia): 4030 nM | GI50 (MDA-MB-435): 1480 nM | TGI (MDA-MB-435): 2960 nM | GI50 (PC-3 prostate): 2030 nM | TGI (PC-3 prostate): 6610 nM | GI50 (RXF 393 renal): 1520 nM | TGI (RXF 393 renal): 2880 nM | GI50 (MCF7 breast): 665 nM | TGI (MCF7 breast): 2990 nM | GI50 (HL-60(TB) leukemia): 1440 nM | TGI (HL-60(TB) leukemia): 5170 nM | GI50 (MOLT-4 leukemia): 1220 nM | TGI (MOLT-4 leukemia): 7120 nM | GI50 (786-0 renal): 1790 nM | TGI (786-0 renal): 3320 nM | GI50 (OVCAR-3 ovarian): 1010 nM | TGI (OVCAR-3 ovarian): 2280 nM | GI50 (DU-145 prostate): 2390 nM | TGI (DU-145 prostate): 7140 nM | GI50 (COLO 205 colon): 1910 nM | TGI (COLO 205 colon): 3530 nM | GI50 (LOX IMVI melanoma): 833 nM | TGI (LOX IMVI melanoma): 2540 nM | GI50 (HCT-15 colon): 1010 nM | TGI (HCT-15 colon): 2550 nM | GI50 (NCI-H460 lung): 1740 nM | TGI (NCI-H460 lung): 4300 nM | GI50 (T-47D breast): 1390 nM | TGI (T-47D breast): 4470 nM | GI50 (UACC-62 melanoma): 1500 nM | TGI (UACC-62 melanoma): 3200 nM | GI50 (U251 CNS): 672 nM | TGI (U251 CNS): 2060 nM | GI50 (UO-31 renal): 1640 nM | TGI (UO-31 renal): 3150 nM | GI50 (NCI/ADR-RES ovarian): 3480 nM | TGI (NCI/ADR-RES ovarian): 23600 nM | GI50 (NCI-H522 lung): 167 nM | TGI (NCI-H522 lung): 344 nM | GI50 (SNB-19 CNS): 1990 nM | TGI (SNB-19 CNS): 5130 nM | GI50 (SR leukemia): 338 nM | GI50 (SW-620 colon): 1440 nM | TGI (SW-620 colon): 3210 nM | GI50 (HOP-62 NSCLC): 2750 nM | TGI (HOP-62 NSCLC): 5490 nM | GI50 (HCT-116 colon): 1880 nM | TGI (HCT-116 colon): 3920 nM | GI50 (TK-10 renal): 1870 nM | TGI (TK-10 renal): 3320 nM | GI50 (SK-OV-3 ovarian): 4360 nM | TGI (SK-OV-3 ovarian): 15500 nM | GI50 (KM12 colon): 10600 nM | TGI (KM12 colon): 22700 nM | GI50 (SF-295 CNS): 7920 nM | TGI (SF-295 CNS): 21800 nM | GI50 (HCC-2998 colon): 2280 nM | TGI (HCC-2998 colon): 4870 nM | GI50 (A549 NSCLC): 9720 nM | TGI (A549 NSCLC): 28800 nM | GI50 (CCRF-CEM leukemia): 401 nM | TGI (CCRF-CEM leukemia): > 24300 nM | GI50 (SK-MEL-5 melanoma): 1480 nM | TGI (SK-MEL-5 melanoma): 2880 nM | GI50 (M14 melanoma): 1550 nM | TGI (M14 melanoma): 3290 nM | GI50 (HS 578T breast): 1600 nM | TGI (HS 578T breast): 6850 nM | GI50 (CAKI-1 renal): 3400 nM | TGI (CAKI-1 renal): 12400 nM | GI50 (SN12C renal): 1360 nM | TGI (SN12C renal): 2720 nM | GI50 (SNB-75 CNS): 1600 nM | TGI (SNB-75 CNS): 5250 nM | GI50 (HOP-92 NSCLC): 1530 nM | TGI (HOP-92 NSCLC): 2920 nM | GI50 (MDA-MB-231 breast): 1170 nM | TGI (MDA-MB-231 breast): 2640 nM | GI50 (BT-549 breast): 2220 nM | TGI (BT-549 breast): 5290 nM
